Measured values from patent US7745465B2, “Method of enhancing cellular production of molecular chaperone, hydroxylamine derivatives useful for enhancing the chaperone production and the preparation thereof” (CytRx Corporation, priority 1995, dated 2010).

Legend:
plasma membrane fluidity = assay: Steady-state fluorescence anisotropy of DPH-PA in serum deprived cells; format: cell-based; conditions: both cell models
Protocol: (§1) Experiments were carried out using WEH1 mouse fibrosarcoma and H9c2 rat heart muscle cell lines divided into three groups: • control (10% FCS fetal calf serum) • serum deprived • N-[2-hydroxy-3-(1-piperidinyl)propoxy]-3-pyridinecarboximidoyl chloride maleate (10^−5 M) treated and serum deprived 1.2(i) Serum Deprivation and MTT Test
Cell suspensions of […] in PBS were labeled by the addition of DPH-PA (3-[p-(6-Phenyl)-1,3,5-hexatrienyl]phenylpropionic acid) dissolved in tetrahydrofuran at a final concentration of 0.1 :M and incubated for 10 min. at 37 C. The amount of organic solvent added was 0.05% to avoid its effect on cell membranes. […] Fluorescence measurements were carried out at 37° C. using a Quanta Master QM-1 T-format luminescence spectrometer (Photon Technology Int. Inc., N.J. USA) equipped with polarizers in the excitation and in the two emission light path. […] The measured fluorescence intensities were corrected for background fluorescence and light scattering from the unlabeled sample. The fluorescence anisotropy was calculated as rs=(IVV−G·IVH)/(IVV+(2×G×IVH))
where IVV and IVH are observed intensities measured with polarizers parallel and perpendicular to the vertically polarized exciting beam, respectively. […]

[1] = system: Streptozotocin-induced diabetic (STZ) rats; assay: Wound healing of thermal wounds in STZ-diabetic rats; format: in vivo, rat; conditions: 4% containing cream, topical
Protocol: (ii) Streptozotocin-induced diabetic (STZ) rats with partial-to full thickness thermal wounds created on bilateral thoracic depilated skin by electroheating probe (3 mm of diameter; 60° C.; for 30, 60 and 90 sec.), treated by topical application of 1%, 2% or 4% N-[2-hydroxy-3-(1-piperidinyl)propoxy]-3-piridinecarboximidoyl chloride maleate containing cream or vehicle were used to determine the wound healing in form of self-control, side to side comparison. Wound closure was recorded photographically and using the digital epiluminescence microscopic technique. Wound areas were measured by planimetry 48 h and 21 days after heat injury. Level of hsp72 of skin biopsy samples was determined using Western blot analysis.

Male Sprague-Dawley rats = assay: Protection against cardiac ischaemia: survival after 5 minutes coronary occlusion and reperfusion; format: in vivo, rat
[2] = system: H9c2 rat heart muscle cell; assay: Serum deprivation, cell viability by MTT test (H9c2); format: cell-based; conditions: serum deprived H9c2, 10^−5 M, control 100%, serum deprived alone 50.5%, read-out: relative cell viability
Protocol: as §1
We have screened various cell lines, drug concentrations, pretreatment and deprivation times and we have found the most appropriate conditions as follows: […] H9c2 rat heart muscle cell (n=6) and WEHI mouse fibrosarcoma cell (n=7) have been plated on 24 well plates in 10% FCS DMEM (Dulbecco modified Eagle's medium) and incubated for 2 hours at 37 C, 5% CO2. Medium has been discarded and replaced by 10% FCS DMEM containing 10^−5 M N-[2-hydroxy-3-(1-piperidinyl)propoxy ]-3-pyridinecarboximidoyl chloride maleate. […] Cell viability was measured by MTT test based on the method of Plumb et al. (Cancer Res. 49: 4435-4444 (1989)) The tetrazolium salt method involving conversion of MTT (3-(4,5-dimethylthiazol-2yl)-2,5-diphenyltetrazolium bromide) to colored formazan by alive cells, served as an indirect measurement of cell viability. […] O.D. of the plates was read at 570 nm on an ELISA plate reader (Labsystems Multiskan Biochromatic type:348). […] Relative cell viability was calculated defining control group as 100%.

O=C(O)/C=C\C(=O)O.OC(CON=C(Cl)c1cccnc1)CN1CCCCC1 (centres unmarked) [N-[2-hydroxy-3-(1-piperidinyl)-propoxy]3-pyridinecarboximidoyl chloride maleate]
membrane physical state (fluorescence anisotropy of DPH-PA) (plasma membrane fluidity): almost complete preservation of the membrane physical state
wound closure compared to vehicle control [1]: accelerated wound closure
Survival (%) (Male Sprague-Dawley rats; 20 mg/kgbw p.o.): 100%
Survival (%) (Male Sprague-Dawley rats; i.v. 1 mg/kgbw, 5 min. before the occlusion, non-treated control 10): 100%
viability at 10 µM [2]: 82.8%
